Read-outs that look alike come from different tables or passages of the source. Blank lines part the entries; values can stand above or below the compound they belong to.
Key:
[1] = Oral administration to fasted beagles of compound (II) or (III) with ascorbic acid, plasma drug disposition parameters (Experimental Examples 5 and 6); settings: for AUC(0-t) at 8 h / Cmax / Tmax: po, 3 mg/kg, n=2; for AUC(0-t) at 8 h: AUC (0-8 hr) mean ± SE; for Cmax: Cmax mean ± SE; for Tmax: Tmax mean ± SE
Procedure: The term "bioavailability" herein is defined as follows: a plasma concentration-time curve of a drug after being administered once is prepared in each case of administration by intravenous injection and oral administration with the same amount of the drug, and the availability is represented by the ratio (F) of the area under the plasma concentration-time curve in the case of oral administration ([AUC]PO)to the area under the plasma concentration-time curve in the case of intravenous injection ([AUC]IV): [formula]
The ratio of an AUC value obtained when one or more compounds selected from the group consisting of organic acids and salts thereof are added to an AUC value obtained when no such compound(s) is (are) added will be referred to as "addition effect ratio".
350 mg of ascorbic acid and 70 mg of lactose were added to 70 mg of compound (II) and the mixture was thoroughly pulverized and mixed in a mortar. The mixture was filled in each of No. 2 gelatin capsules in such an amount that the dose of compound (II) would be 3 mg/kg to obtain a preparation.
A control sample free from ascorbic acid was prepared by preparing a powder of 7-fold dilution with lactose (70 mg of compound (II) plus 420 mg of lactose) and filled in No. 2 capsules in such an amount that the dose of compound (II) would be 3 mg/kg to obtain a preparation.
(a) Administration and collection of blood sample
(§1) Four beagles were divided into two groups (i.e. a group to which ascorbic acid was given and a control group) after fasting overnight (14 hours) and a preparation comprising 3 mg/kg of compound (II) and 15 mg/kg of ascorbic acid or a control preparation comprising no ascorbic acid was given together with 30 ml of water by oral administration. No food was given also in the course of collection of blood sample. 3 ml of the whole blood was sampled through a vein of a foreleg by means of a heparinized syringe, immediately cooled with ice/water and centrifuged (1200 rpm, 3 min, 4° C.). The blood plasma was separated and a citrate buffer solution (pH 3.5, 100 μl) was added thereto to adjust the pH to 5.0. The plasma thus treated was kept frozen at -20° C. The points of collection of blood samples were before the administration and 10, 20, 30 and 45 minutes and 1, 1.5, 2, 3, 4, 6 and 8 hours after the administration.
(b) Method of analysis of concentration of unchanged substance in blood plasma
(c) HPLC determination conditions
The drug disposition parameters of each sample were determined from the data obtained by the oral administration of the preparation comprising 3 mg/kg of compound (II) and 15 mg/kg of ascorbic acid or a control preparation comprising no ascorbic acid to beagles while they were kept fasting.
350 mg of ascorbic acid and 70 mg of lactose were added to 70 mg of compound (III) and the mixture was thoroughly pulverized and mixed in a mortar. The mixture was filled in each of No. 2 gelatin capsules in such an amount that the dose of compound (III) would be 3 mg/kg to obtain a preparation.
A control sample free from ascorbic acid was prepared by preparing a powder of 7-fold dilution with lactose (70 mg of compound (III) plus 420 mg of lactose) and filled in No. 2 capsules in such an amount that the dose of compound (III) would be 3 mg/kg to obtain a preparation.
as §1, with “(III)” for “(II)”, “syringe,” for “syringe, immediately”, “5.0.” for “5.0. The plasma thus treated was kept frozen at -20° C. The points of collection of blood samples were before the administration and 10, 20, 30 and 45 minutes and 1, 1.5, 2, 3, 4, 6 and 8 hours after the administration.”

[2] = Drug disposition after intravenous injection to beagles, plasma concentration-time curve (Experimental Example 1); type: in vivo; settings: dog, 1 mg/kg iv; for half-life: iv, 1 mg/kg
Procedure: 1 mg/kg of compound (VIII) was administered to beagles by intravenous injection and the plasma concentration-time curve thereof of prepared to find that the half-life composed of three phases (phases a, b and c).

[3] = Correlation between AUC and oral dose in beagles, powder of ten-fold dilution with lactose in capsule; bioavailability from regression line (Experimental Example 2); type: in vivo; settings: oral
Procedure: Compound (VIII) or compound V was formulated into a powder of ten-fold dilution with lactose. It was given to beagles in an amount ranging from 0.3 to 30 mg/kg as a capsule by oral administration and the plasma concentration-time curve thereof was prepared. The regression line equation was as follows: […]

[4] = dog, plasma, 3 mg/kg oral + ascorbic acid 15 mg/kg
[5] = dog, plasma, 3 mg/kg oral, none (control)
[6] = dog, in vivo, 3 mg/kg oral + ascorbic acid 15 mg/kg
[7] = dog, in vivo, 3 mg/kg oral, none (control)

increase of AUC value ([1]; dog, in vivo): about 3.3 -fold
AUC(0-t) at 8 h [1, 4]: 197 ± 12.5 ng·h/mL
AUC(0-t) at 8 h [1, 5]: 59.8 ± 16.9 ng·h/mL
Cmax [1, 4]: 91.9 ± 0.4 ng/mL
Cmax [1, 5]: 39 ± 16.6 ng/mL
Tmax [1, 4]: 30 ± 15 min
Tmax [1, 5]: 45 ± 15 min
SMILES: CS(=O)(=O)O.Oc1ccc(C2CNCCc3c2cc(O)c(O)c3Cl)cc1 (stereo not drawn) [compound (III), 6-chloro-2,3,4,5-tetrahydro-1-(4-hydroxyphenyl)-1H-3-benzazepine-7,8-diol methanesulfonate, reference compound]

clearance ([2]; read-out: CLtotal): 78 mL/min/kg
C0 ([2]; read-out: CP^0): 2290 ng/mL
MRT ([2]; read-out: MRT (mean residence time in the plasma) (converted)): 14.5 min
Vd ([2]; read-out: Vc): 0.44 L/kg
half-life ([2]; phase a, read-out: t1/2a): 1.3 min
half-life ([2]; phase b, read-out: t1/2b): 8.11 min
half-life ([2]; phase c, read-out: t1/2c): 26.9 min
bioavailability ([3]; dog, plasma, efficacious dose around 3 to 5 mg/kg): 4 to 5%
gradient of regression line log(AUC) vs log(dose) ([3]; 0.3 to 30 mg/kg): 1.218
increase of AUC value when the dose is increased 10-fold ([3]; 0.3 to 30 mg/kg): 16.5 -fold
intercept of regression line log(AUC) vs log(dose) ([3]; 0.3 to 30 mg/kg): 0.894
SMILES: Br.Oc1ccc([C@@H]2CNC[C@H]2c2cccc(O)c2Cl)cc1O (relative stereo) [compound (VIII), trans-3-(2-chloro-3-hydroxyphenyl)-4-(3,4-dihydroxyphenyl)pyrrolidine hydrobromide]

SMILES: Br.Oc1ccc(C2CNCc3c2ccc(O)c3O)cc1O (stereo not drawn) [compound (II), 7,8-dihydroxy-4-(3,4-dihydroxyphenyl)-1,2,3,4-tetrahydroisoquinoline hydrobromide]
Addition effect (AUC ratio) ([1]; 3 mg/kg oral + ascorbic acid 15 mg/kg): 1.39
Addition effect (AUC ratio) ([1]; 3 mg/kg oral, none (control)): 1.00
AUC(0-t) at 8 h [1, 6]: 116.6 ± 0.1 ng·h/mL
AUC(0-t) at 8 h [1, 7]: 83.6 ± 4.7 ng·h/mL
Cmax [1, 6]: 89.6 ± 11.8 ng/mL
Cmax [1, 7]: 95.6 ± 42.2 ng/mL
Tmax [1, 6]: 37.8 ± 7.8 min
Tmax [1, 7]: 25.2 ± 5.4 min
increase of AUC value ([1]; with ascorbic acid): about 1.4 -fold

Source: US5292521A, “Solid oral preparation containing a pyrrolidine derivative with a catechol group” (priority 1990, dated 1994)
